In brackets after ≈: the same amount, converted by molar mass.
What was measured:
[1] = test system: HepG2; assay: Cytotoxicity against human HepG2 cells assessed as reduction in cell growth by MTT based colorimetric assay; type: functional
[2] = test system: HCT-116; assay: Cytotoxicity against human HCT-116 cells assessed as reduction in cell growth by MTT based colorimetric assay; type: functional
[3] = test system: A-375; assay: Cytotoxicity against human A-375 cells assessed as reduction in cell growth by MTT based colorimetric assay; type: functional
[4] = test system: A549; assay: Cytotoxicity against human A549 cells assessed as reduction in cell viability incubated for 24 hrs by MTT based colorimetric assay; type: functional; conditions: A549, 24 h
[5] = test system: HT-29; assay: Cytotoxicity against human HT-29 cells assessed as cell growth inhibition by MTT assay; type: functional, cell-based
[6] = test system: P388; assay: Cytotoxicity against mouse P388 cells assessed as reduction in cell viability by SRB assay; type: functional; conditions: read-out: ED50 (the source's name)
[7] = test system: A549; assay: Antiproliferative activity against human A549 cells assessed as reduction in cell growth in presence of doxorubicin by CellTiter-Glo luminescent assay; type: functional, cell-based
[8] = test system: HL-60; assay: Antiproliferative activity against human HL-60 cells assessed as reduction in cell viability incubated for 72 hrs by MTT assay; type: functional, cell-based; conditions: HL-60, 72 h
[9] = test system: HepG2; assay: Cytotoxicity against human HepG2 cells assessed as inhibition of cell growth by MTT based colorimetric analysis; type: functional
[10] = test system: A-375; assay: Cytotoxicity against human A-375 cells assessed as inhibition of cell growth by MTT based colorimetric analysis; type: functional
[11] = test system: HCT-116; assay: Cytotoxicity against human HCT-116 cells assessed as inhibition of cell growth by MTT based colorimetric analysis; type: functional
[12] = test system: NCI-H1975; assay: Antiproliferative activity against human NCI-H1975 cells assessed as cell growth inhibition incubated for 72 hrs by MTT assay; type: functional, cell-based; conditions: NCI-H1975, 72 h
[13] = test system: NCI-H1650; assay: Antiproliferative activity against human NCI-H1650 cells assessed as cell growth inhibition incubated for 72 hrs by MTT assay; type: functional, cell-based; conditions: NCI-H1650, 72 h
[14] = test system: MCF7; assay: Antiproliferative activity against human MCF7 cells assessed as cell growth inhibition incubated for 72 hrs by MTT assay; type: functional, cell-based; conditions: MCF7, 72 h
[15] = test system: NCI/ADR-RES; assay: Antiproliferative activity against human MCF7ADR cells assessed as cell growth inhibition incubated for 72 hrs by MTT assay; type: functional, cell-based
[16] = test system: Bel-7402; assay: Antiproliferative activity against human Bel-7402 cells assessed as inhibition of cell growth measured after 48 hrs by CCK-8 assay; type: functional, cell-based; conditions: Bel-7402, 48 h
[17] = test system: SK-MEL-28; assay: Cytotoxicity against human SK-MEL-28 cells assessed as inhibition of cell growth incubated for 72 hrs by MTT assay; type: functional, cell-based; conditions: SK-MEL-28, 72 h
[18] = Antiproliferative activity against human U373 cells assessed as inhibition of cell growth measured after 72 hrs by CTG assay; type: functional, cell-based; conditions: U373 MG
[19] = test system: HepG2; assay: Antiproliferative activity against human HepG2 cells assessed as reduction in cell viability incubated for 72 hrs by CCK-8 assay; type: functional, cell-based; conditions: HepG2, 72 h
[20] = test system: HCT-116; assay: Antiproliferative activity against human HCT-116 cells assessed as reduction in cell growth incubated for 24 hrs by MTT assay; type: functional, cell-based; conditions: HCT-116, 24 h
[21] = test system: A549; assay: Antiproliferative activity against human A549 cells assessed as cell growth inhibition; type: functional, cell-based
[22] = test system: MCF7; assay: Antiproliferative activity against human MCF7 cells assessed as reduction in cell viability incubated for 48 hrs by MTT assay; type: functional, cell-based; conditions: MCF7, 48 h
[23] = test system: HCT-116; assay: Antiproliferative activity against human HCT-116 cells assessed as reduction in cell proliferation; type: functional, cell-based
[24] = test system: HeLa; assay: Cytotoxicity against human HeLa cells assessed as reduction in cell growth incubated for 48 hrs by MTT assay; type: functional, cell-based
[25] = test system: NCI/ADR-RES; assay: Antiproliferative activity against human NCI-ADR-RES cells assessed as inhibition of cell growth measured after 48 hrs by SRB assay; type: functional, cell-based
[26] = test system: HL-60; assay: Antiproliferative activity against human HL-60 cells assessed as cell growth inhibition incubated for 72 hrs by MTT assay; type: functional, cell-based; conditions: HL-60, 72 h
[27] = test system: MCF7; assay: Cytotoxicity against human MCF7 cells assessed as reduction in cell growth incubated for 5 days by MTT assay; type: functional, cell-based; conditions: MCF7, 120 h
[28] = test system: HL-60; assay: Growth inhibition of human HL-60 cells incubated for 4 days by WST assay; type: functional; conditions: HL-60, 96 h, time 4 day
[29] = test system: K562; assay: Growth inhibition of human K562 cells incubated for 48 hrs by sulforhodamine B assay; type: functional
[30] = test system: HT-29; assay: Growth inhibition of human HT-29 cells by SRB assay; type: functional
[31] = test system: SMMC-7721; assay: Anticancer activity against human SMMC-7721 cells assessed as cell growth inhibition incubated for 48 hrs by CCK8 assay; type: functional, cell-based; conditions: SMMC-7721, 48 h
[32] = test system: MDA-MB-231; assay: Antiproliferative activity against human MDA-MB-231 cells assessed as reduction in cell viability after 48 hrs by SRB assay; type: functional, cell-based; conditions: MDA-MB-231, 48 h
[33] = test system: NCI-N87; assay: Growth inhibition of human NCI-N87 cells assessed as reduction in cell viability measured after 72 hrs by MTT assay; type: functional
[34] = test system: HT-29; assay: Cytotoxicity against human HT-29 cells assessed as reduction in cell viability by SRB assay; type: functional, cell-based
[35] = test system: U-251; assay: Growth inhibition of human U-251 cells by sulforhodamine B assay; type: functional; conditions: time 72 hrs
[36] = test system: DU-145; assay: Growth inhibition of human DU-145 cells incubated for 48 hrs by sulforhodamine B assay; type: functional
[37] = test system: SF-295; assay: Growth inhibition against human SF-295 cells incubated for 48 hrs by sulforhodamine B assay; type: functional
[38] = test system: HCT-116; assay: Anticancer activity against human HCT-116 cells assessed as cell growth inhibition; type: functional
[39] = test system: MCF7; assay: Growth inhibition of human MCF7 cells incubated for 48 hrs by SRB assay; type: functional
[40] = test system: MCF7; assay: Antiproliferative activity against human MCF7 cells assessed as cell growth inhibition incubated for 48 hrs by MTT assay; type: functional, cell-based; conditions: MCF7, 48 h
[41] = test system: HUVEC; assay: Cytotoxicity against HUVEC cells assessed as reduction in cell viability incubated for 48 hrs by MTT assay; type: functional, cell-based; conditions: Homo sapiens
[42] = test system: P388; assay: Cytotoxicity against mouse P388 cells assessed as inhibition of cell growth incubated for 48 hrs by SRB assay; type: functional, cell-based; conditions: P388, 48 h
[43] = test system: SH-SY5Y; assay: Cytotoxicity against human SH-SY5Y cells assessed as reduction in cell viability; type: functional, cell-based
[44] = test system: U-937; assay: Cytotoxicity against human U-937 cells assessed reduction in cell growth incubated for 48 hrs by MTT assay; type: functional, cell-based; conditions: U-937, 48 h
[45] = test system: SK-OV-3; assay: Growth inhibition of human SK-OV-3 cells by sulforhodamine B assay; type: functional
[46] = test system: U-251; assay: Growth inhibition of human U-251 cells; type: functional
[47] = test system: DU-145; assay: Growth inhibition of human DU-145 cells by sulforhodamine B assay; type: functional
[48] = test system: K562; assay: Cytotoxicity against human K562 cells assessed reduction in cell growth incubated for 48 hrs by MTT assay; type: functional, cell-based; conditions: K562, 48 h
[49] = test system: A498; assay: Growth inhibition of human A498 cells by SRB method; type: functional
[50] = Antiproliferative activity against human LA-N-1 cells assessed as cell growth inhibition; type: functional, cell-based; conditions: LAN1
[51] = test system: A-431; assay: Anticancer activity against human A-431 cells assessed as reduction of cell viability incubated for 48 hrs by MTT assay; type: functional, cell-based; conditions: A-431, 48 h
[52] = test system: SK-N-DZ; assay: Anticancer activity against human SK-N-DZ cells assessed as cell growth inhibition measured after 72 hrs by DAPI staining based analysis; type: functional
[53] = test system: M14; assay: Growth inhibition of human M14 cells; type: functional
[54] = test system: NCI/ADR-RES; assay: Growth inhibition of human MCF7ADR cells; type: functional
[55] = test system: NCI-H522; assay: Growth inhibition of human NCI-H522 cells; type: functional
[56] = test system: SW-620; assay: Growth inhibition of human SW620 cells; type: functional
[57] = test system: MCF7; assay: Cytotoxicity against human MCF7 cells assessed as reduction in cell viability measured after 48 hrs by MTT assay; type: functional, cell-based; conditions: MCF7, 48 h

CC(C)C[C@H]1NC(=O)[C@@H](C[C@]2(O)c3ccccc3N3C(=O)[C@@H](C)N[C@H]32)n2c1nc1ccccc1c2=O
IC50 [1]: 76 µM | IC50 [2]: 203 µM | IC50 [3]: 160 µM | IC50 [4]: 0.54 µM

COc1cccc2c(=O)n3ccc4c5ccccc5[nH]c4c3nc12
IC50 [5]: 27.1 µM | EC50 [6]: 12.3 µM

CC(C)C[C@H]1NC(=O)[C@@H](C[C@]2(O)c3ccccc3N3C(=O)C(C)(C)N[C@H]32)n2c1nc1ccccc1c2=O
IC50 [7]: 0.54 µM | IC50 [8]: 52 µg/mL (≈ 104 µM) | IC50 [9]: 24 µM | IC50 [10]: 75 µM | IC50 [11]: 86 µM

CN1c2ccccc2C(=O)N2CCc3c([nH]c4ccccc34)C21 (configuration not stated)
IC50 [12]: 5.59 µM | IC50 [13]: 4.53 µM | IC50 [14]: 0.3 µM | IC50 [15]: 0.47 µM

CC(C)/C=C1\NC(=O)[C@H](CCC(N)=O)n2c1nc1ccccc1c2=O [AURANTIOMIDE C]
IC50 [16]: 62 µg/mL (≈ 182 µM)

C[C@@H]1N[C@@H]2N(C1=O)c1ccccc1[C@@]21C[C@@H](n2cnc3ccccc3c2=O)C(=O)O1 [FUMITREMORGIN F]
IC50 [17]: > 100 µM | IC50 [18]: 90 µM | IC50 [19]: 235 µM | IC50 [20]: 202 µM | IC50 [21]: > 100 µM | IC50 [22]: > 100 µM

O=c1c2ccccc2nc2n1Cc1cc3ccccc3nc1-2 [LUOTONIN A]
IC50 [23]: 51.1 µM | IC50 [24]: 3 µM | IC50 [25]: 3 µM | IC50 [26]: > 100 µM | IC50 [27]: 3 µM

O=c1c2ccccc2nc2n1CCc1c-2[nH]c2ccccc12 [RUTAECARPINE]
GI50 [28]: 19.8 µM | GI50 [29]: 25.8 µM | GI50 [30]: 31.6 µM | IC50 [31]: 18.9 µM | IC50 [32]: 118 µM | GI50 [33]: 8.41 µM | IC50 [34]: 118 µM | GI50 [35]: 0.02 µM | GI50 [36]: 31.7 µM | GI50 [37]: 14.1 µM | GI50 [38]: 33.9 µM | GI50 [39]: 19.6 µM | IC50 [40]: 74.5 µM | IC50 [41]: 16.5 µM | IC50 [42]: 36.8 µM

O=C1c2ccccc2-n2c1nc1ccccc1c2=O [TRYPTANTHRIN]
IC50 [43]: 22 µM | IC50 [44]: 3.1 µg/mL (≈ 12.5 µM) | GI50 [45]: 2.5 µM | GI50 [46]: 100 µM | GI50 [47]: 0.4 µM | IC50 [48]: 6.3 µg/mL (≈ 25.4 µM) | GI50 [49]: 0.95 µM | IC50 [50]: 15.8 µM | IC50 [51]: 9 µM | IC50 [52]: 14 µM | GI50 [53]: 15 µM | GI50 [54]: 30 µM | GI50 [55]: 15 µM | GI50 [56]: 5 µM

CC(=O)O[C@H](c1nc2ccccc2c(=O)n1[C@@H]1C[C@]2(OC1=O)c1ccccc1N1C(=O)C(C)(C)N(O)[C@H]12)C(C)C [TRYPTOQUIVALINE]
IC50 [57]: 72 µM
